From patent US20180298405A1, “METHODS AND COMPOSITIONS TO INCREASE HUMAN SOMATIC CELL NUCLEAR TRANSFER (SCNT) EFFICIENCY BY REMOVING HISTONE H3-LYSINE TRIMETHYLATION, AND DERIVATION OF HUMAN NT-ESC” (CHILDREN'S MEDICAL CENTER CORPORATION, priority 2015, published 2018)

Test system: reprogramming resistant regions (RRRs) / ZGA genes
Assay: RNA-seq of late 8-cell human SCNT embryos with or without KDM4A mRNA injection (ZGA of RRRs, KDM4A-responsive genes)
Assay type: cell-based
Conditions: 8-cell embryos
Text: A sliding window (size 20 kb, step size 10 kb) was used to assess the genome-wide expression level of 4-cell and 8-cell human embryos. For each window, the expression level was quantified with normalized RPM (reads per millions of uniquely mapped reads). […] These activated regions were classed into three groups based on their expression differences in human SCNT and IVF 8-cell embryos.
The SCNT embryos used for ZGA analysis were generated using oocytes donated by a single healthy person (#64) and dermal fibroblast cells from an AMD patient (DFB-8). SCNT and IVF embryos were cultured up to late 8-cell stage, when the compaction of blastomeres is initiated, then they were treated briefly with acid Tyrode solution to remove zona pellucida. To prepare for the 8-cell SCNT embryo, oocytes from a single oocyte donor, and skin fibroblast cells from a single somatic nuclear donor were used. All the procedures are the same as described in the “Human SCNT procedure and KMD4A mRNA injection” section. Only embryos that reached the late 8-cell stage synchronically 74 hours post activation were collected and used for this experiment.
For preparation of the control IVF embryos, several donated early 8-cell stage IVF embryos were thawed and cultured for 5-7 hours to allow them to reach late 8-cell stage before being processed. After removal of the zona pellucida, the denuded embryos were washed 3 times in PBS, loaded into RNAse and DNAse free PCR tubes, spin downed, and snap frozen in liquid nitrogen. Then, they were kept at −80° C. until use. As controls, dermal fibroblast cells of somatic nuclear donors were also prepared. Those fibroblast cells were cultured in a 25 cm^2 flask in DMEM 10% FBS, and approximately 10,000 cells/donor were collected, snap frozen, and stored at −80° C. until use.
Five 8-cell embryos for each group were directly lysed and used for cDNA synthesis using SMART-Seq v4 Ultra Low Input RNA Kit (Clontech). For MEF donor, 10 ng total RNA was used for cDNA synthesis using SMART-Seq v4 Ultra Low Input RNA Kit. After amplification, the cDNA samples were fragmented using Covaris sonicator M220 to an average size of 150 bp (Covaris). Sequencing libraries were made with the fragmented DNA using NEBNext Ultra DNA Library Prep Kit for Illumina according to manufacturer's instruction (New England Biolabs) with different barcodes. For each RNA-seq analysis of hESCs, 1 μg total RNA was used for mRNA purification. Barcoded RNA-seq libraries were generated using NEBNext Ultra Directional RNA Library Prep Kit for Illumina (New England Biolabs). Single end 50 bp sequencing was performed on a HiSeq 2500 sequencer (Illumina). Sequencing reads were mapped to the human genome (hg19) with Tophat2. All programs were performed with default settings (unless otherwise specified). At least 22 million uniquely mapped reads were obtained for each sequencing library, and subsequently assembled into transcripts guided by the reference annotation (Refseq gene models) with Cufflinks v2.0.2. Expression level of each gene was quantified with normalized FPKM (fragments per kilobase of exon per million mapped fragments). Statistical analyses were performed with R (available at: “www.r-project.org/”). Independent 2 group Wilcoxon rank sum tests were used to compare distributions using the wilcox.test function in R. Pearson's r coefficient was calculated using the cor function with default parameters. The hierarchical clustering analysis of the global gene expression pattern in different samples was carried out using heatmap.2 function (gplots package) in R.

Substance: KDM4A mRNA: in vitro transcribed mRNA of full length human KDM4A/JHDM3A cDNA, an H3K9me3 demethylase (SEQ ID NO: 1)
- FAM83D Fold Change (log2) [KDM4A SCNT/Control SCNT]: 1.32 log2
- FAM133B Fold Change (log2) [KDM4A SCNT/Control SCNT]: 1.1 log2
- FAM151A Fold Change (log2) [KDM4A SCNT/Control SCNT]: 1.99 log2
- FAM162A Fold Change (log2) [KDM4A SCNT/Control SCNT]: 1.73 log2
- FAM200A Fold Change (log2) [KDM4A SCNT/Control SCNT]: 1.17 log2
- FASTKD5 Fold Change (log2) [KDM4A SCNT/Control SCNT]: 1.05 log2
- FBXL12 Fold Change (log2) [KDM4A SCNT/Control SCNT]: 1.74 log2
- FMR1NB Fold Change (log2) [KDM4A SCNT/Control SCNT]: 1.49 log2
- FOXN2 Fold Change (log2) [KDM4A SCNT/Control SCNT]: 1.29 log2
- GALM Fold Change (log2) [KDM4A SCNT/Control SCNT]: 1.55 log2
- GIP Fold Change (log2) [KDM4A SCNT/Control SCNT]: 1.59 log2
- GJA1 Fold Change (log2) [KDM4A SCNT/Control SCNT]: 1.36 log2
- GOLGB1 Fold Change (log2) [KDM4A SCNT/Control SCNT]: 1.58 log2
- GUCA1B Fold Change (log2) [KDM4A SCNT/Control SCNT]: 1.02 log2
- GUSBP1 Fold Change (log2) [KDM4A SCNT/Control SCNT]: 1.11 log2
- GUSBP4 Fold Change (log2) [KDM4A SCNT/Control SCNT]: 1.12 log2
- H3F3A Fold Change (log2) [KDM4A SCNT/Control SCNT]: 1.84 log2
- IFI30 Fold Change (log2) [KDM4A SCNT/Control SCNT]: 1.05 log2
- IL13RA2 Fold Change (log2) [KDM4A SCNT/Control SCNT]: 1.85 log2
- KHDC1 Fold Change (log2) [KDM4A SCNT/Control SCNT]: 1.89 log2
- KHDC1L Fold Change (log2) [KDM4A SCNT/Control SCNT]: 1.54 log2
- KITLG Fold Change (log2) [KDM4A SCNT/Control SCNT]: 2.36 log2
- KLF17 Fold Change (log2) [KDM4A SCNT/Control SCNT]: 1.19 log2
- KLK4 Fold Change (log2) [KDM4A SCNT/Control SCNT]: 1.68 log2
- KLK11 Fold Change (log2) [KDM4A SCNT/Control SCNT]: 1.76 log2
- KPTN Fold Change (log2) [KDM4A SCNT/Control SCNT]: 4.35 log2
- LARP6 Fold Change (log2) [KDM4A SCNT/Control SCNT]: 1.35 log2
- LEMD3 Fold Change (log2) [KDM4A SCNT/Control SCNT]: 1.11 log2
- LIM2 Fold Change (log2) [KDM4A SCNT/Control SCNT]: 1.99 log2
- LINC00263 Fold Change (log2) [KDM4A SCNT/Control SCNT]: 1.39 log2
- LOC284408 Fold Change (log2) [KDM4A SCNT/Control SCNT]: 2.24 log2
- LOC347411 Fold Change (log2) [KDM4A SCNT/Control SCNT]: 1.36 log2
- LOC401397 Fold Change (log2) [KDM4A SCNT/Control SCNT]: 1.75 log2
- LOC643955 Fold Change (log2) [KDM4A SCNT/Control SCNT]: 1.44 log2
- LOC653513 Fold Change (log2) [KDM4A SCNT/Control SCNT]: 2.12 log2
- LOC723809 Fold Change (log2) [KDM4A SCNT/Control SCNT]: 1.15 log2
- LOC100129515 Fold Change (log2) [KDM4A SCNT/Control SCNT]: 1.03 log2
- LOC100289211 Fold Change (log2) [KDM4A SCNT/Control SCNT]: 2.34 log2
- LOC100505854 Fold Change (log2) [KDM4A SCNT/Control SCNT]: 1.58 log2
- LOC100506305 Fold Change (log2) [KDM4A SCNT/Control SCNT]: 1.2 log2
- LOC100506668 Fold Change (log2) [KDM4A SCNT/Control SCNT]: 1.63 log2
- LUC7L Fold Change (log2) [KDM4A SCNT/Control SCNT]: 1.28 log2
- M1 Fold Change (log2) [KDM4A SCNT/Control SCNT]: 4.71 log2
- MAGEA12 Fold Change (log2) [KDM4A SCNT/Control SCNT]: 1.81 log2
- MAGEB2 Fold Change (log2) [KDM4A SCNT/Control SCNT]: 3.15 log2
- MATR3 Fold Change (log2) [KDM4A SCNT/Control SCNT]: 1.11 log2
- MED31 Fold Change (log2) [KDM4A SCNT/Control SCNT]: 1.44 log2
- MFSD11 Fold Change (log2) [KDM4A SCNT/Control SCNT]: 1.4 log2
- MPV17L2 Fold Change (log2) [KDM4A SCNT/Control SCNT]: 1.54 log2
- MRPL28 Fold Change (log2) [KDM4A SCNT/Control SCNT]: 1.59 log2
- MTERF Fold Change (log2) [KDM4A SCNT/Control SCNT]: 2.39 log2
- NANOGNB Fold Change (log2) [KDM4A SCNT/Control SCNT]: 1.79 log2
